Results from paper PMC5296967, “Binding affinity of five PBPs to Ostrinia sex pheromones” (BMC Molecular Biology, 2017).
Where “and” joins values, the source holds several entries; their conditions need not be identical. Equal values may be shown once. Entries after “also recorded” stand apart in the source; their conditions may differ.

How the values were obtained:
PBPLma = biological target: PBPLma; parameters: method as in PMID 12529170; settings: read-out: binding affinities; cited from earlier work
recombinant OfurPBP1 = recombinant OfurPBP1 (Ostrinia furnacalis, UniProt E7CC99); assay: Competitive fluorescence binding assay with 1-NPN probe, OfurPBP1; settings: mean ± SE, dash = undetectable interaction; for Ki: pH 7.4, Ki = [IC50]/(1 + [1-NPN]/K1-NPN); for IC50: pH 7.4, displacement of 1-NPN
recombinant OfurPBP1, sequence (E7CC99 entry or part of it): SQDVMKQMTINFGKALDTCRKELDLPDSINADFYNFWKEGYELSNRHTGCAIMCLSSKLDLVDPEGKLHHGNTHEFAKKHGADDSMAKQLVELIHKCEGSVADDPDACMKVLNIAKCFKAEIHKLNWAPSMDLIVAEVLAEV
Method: (§1) The 1-NPN probe was excited at 337 nm, and emission spectra were recorded between 380 and 450 nm on a Shimadzu fluorescence spectrophotometer (Shimadzu, Japan). Each trial was run in triplicate, and Scatchard plots of the ratio of bound to unbound ligand were created using Microsoft Excel 2010. Competitive binding assays were performed with each of the OfurPBPs using 1-NPN as the probe. Assay reactions were comprised of 2 µM of each OfurPBP diluted individually in 2.0 ml 20 mM Tris–HCl, pH 7.4, which were then titrated with 1.0 mM increments sex pheromone diluted in methanol to a final concentrations of 1–6 µM. The synthetic standards that correspond to the sex pheromones of O. furnacalis, O. nubilalis and other lepidopteran species were purchased from Sigma-Aldrich (Shanghai, China; Additional file 2: S2). Excitation and emission spectra were recorded from triplicate assays as described above. The binding affinity of each purified OfurPBP to the different sex pheromones was measured by calculation of binding constants via competitive fluorescence-binding assay. In brief, relative fluorescent intensities were analyzed by GraphPad Prism 5 software (GraphPad Software Inc, La Jolla, CA) and calculation was done using the equation: Ki = [IC50]/(1 + [1-NPN]/K1-NPN), where [1-NPN] is the free concentration of 1-NPN and K1-NPN is the dissociation constant of the complex protein/1-NPN [19, 20]. Sex pheromone binding affinity with different PBPs was analyzed using One-way ANOVA in SAS 8.0 (SAS Institute Inc., Cary, NC, USA).

OfurPBP3 mutant M4: I94R = OfurPBP3 mutant M4: I94R (Ostrinia furnacalis, UniProt E7CCA1, L116R); assay: Competitive binding assay, OfurPBP3 mutant M4 I94R
OfurPBP3 mutant M4: I94R, sequence (E7CCA1 entry or part of it L116R): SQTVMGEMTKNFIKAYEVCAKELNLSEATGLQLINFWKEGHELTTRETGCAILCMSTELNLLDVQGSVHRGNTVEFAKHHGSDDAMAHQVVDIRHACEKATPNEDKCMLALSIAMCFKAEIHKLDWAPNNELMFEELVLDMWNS
Method: as §1
(§2) Four amino acids of OfurPBP3 with some of the most negative estimated E total values were mutated using Quick-change lightning site-directed mutagenesis kit (Stratagene, La Jolla, CA, USA); Ile to Asn at position 113 ([…]), m2 Phe to Ser at position 12 (F12S), m3 Ile to Asn at position 52 (I52N), and m4 […] to Arg at position 94 (I94R). The sequence of each primers used to alter the aforementioned sites by nucleotide mismatch are shown in Additional file 3: S3. After initial denaturation at 94 °C for 5 min, the subsequent PCR followed with 30 cycles of 94 °C for 30 s, 56 °C for 30 s, and final extension at 72 °C for 1 min. Changes within site-directed mutant fragments were verified by cloning into the pGEM-T Easy vector (Promega) by Sanger sequencing. All mutated OfurPBPs proteins were expressed and used within in vitro binding assays as described above.

recombinant OfurPBP2 = recombinant OfurPBP2 (Ostrinia furnacalis, UniProt E7CCA0); assay: Competitive fluorescence binding assay with 1-NPN probe, OfurPBP2; settings: dash = undetectable interaction; for IC50: pH 7.4, displacement of 1-NPN, mean ± SE; for Ki: pH 7.4, mean ± SE
recombinant OfurPBP2, sequence (E7CCA0 entry or part of it): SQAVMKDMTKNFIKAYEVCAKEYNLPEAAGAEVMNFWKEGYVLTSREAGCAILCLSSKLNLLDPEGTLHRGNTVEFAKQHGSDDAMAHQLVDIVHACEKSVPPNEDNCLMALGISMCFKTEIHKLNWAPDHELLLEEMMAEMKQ
Method: as §1

OfurPBP3 mutant M2: F12S = OfurPBP3 mutant M2: F12S (Ostrinia furnacalis, UniProt E7CCA1, F34S); assay: Competitive binding assay, OfurPBP3 mutant M2 F12S
OfurPBP3 mutant M2: F12S, sequence (E7CCA1 entry or part of it F34S): as the sequence (E7CCA1 entry or part of it L116R) above, with F12S, R94L counted along it
Method: as §1, §2

[1] = system: OfurPBP1, OfurPBP2, OfurPBP3, OfurPBP4 and OfurPBP5; assay: Competitive binding assay, statements on all five OfurPBPs together; parameters: species or system Ostrinia furnacalis; settings: pH 7.4
Method: as §1

recombinant OfurPBP5 = recombinant OfurPBP5 (Ostrinia furnacalis, UniProt E7CCA3); assay: Competitive fluorescence binding assay with 1-NPN probe, OfurPBP5; settings: pH 7.4; for IC50 / Ki: OfurPBP5, mean ± SE, dash = undetectable interaction; for IC50: displacement of 1-NPN
recombinant OfurPBP5, sequence (E7CCA3 entry or part of it): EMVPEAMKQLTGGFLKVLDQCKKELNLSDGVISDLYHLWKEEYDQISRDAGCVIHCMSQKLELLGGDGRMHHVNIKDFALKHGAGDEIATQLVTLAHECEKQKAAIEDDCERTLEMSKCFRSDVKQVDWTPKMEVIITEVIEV
Method: as §1

recombinant OfurPBP4 = recombinant OfurPBP4 (Ostrinia furnacalis, UniProt E7CCA2); assay: Competitive fluorescence binding assay with 1-NPN probe, OfurPBP4; settings: pH 7.4; for IC50 / Ki: OfurPBP4, mean ± SE, dash = undetectable interaction; for IC50: displacement of 1-NPN
recombinant OfurPBP4, sequence (E7CCA2 entry or part of it): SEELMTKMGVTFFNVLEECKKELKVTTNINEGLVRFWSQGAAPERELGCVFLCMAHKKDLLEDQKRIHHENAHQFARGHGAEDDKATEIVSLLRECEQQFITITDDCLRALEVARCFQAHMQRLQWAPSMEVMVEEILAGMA
Method: as §1

[2] = system: OfurPBP3 mutants F12S, I52N, I94R, and I113N; assay: Competitive binding assay, statements on all OfurPBP3 mutants together; parameters: species or system Ostrinia furnacalis; settings: for binding to all mutated OfurPBPs (in words): pH 7.4; for fold reduction in OfurPBP3 affinity caused by Ser12, Asn52, Arg94, Asn113 variants: range over the four mutants vs wild type
Method: as §1, §2

[3] = biological target: OfurPBP3 mutant M1: I113N (Ostrinia furnacalis, UniProt E7CCA1, I135N); assay: Competitive binding assay, OfurPBP3 mutant M1 I113N; settings: for fold reduction in affinity compared to wild-type OfurPBP3: mutant I113N vs wildtype
OfurPBP3 mutant M1: I113N, sequence (E7CCA1 entry or part of it I135N): as the sequence (E7CCA1 entry or part of it L116R) above, with R94L, I113N counted along it
Method: as §1, §2

OfurPBP3 mutant M3: I52N = OfurPBP3 mutant M3: I52N (Ostrinia furnacalis, UniProt E7CCA1, I74N); assay: Competitive binding assay, OfurPBP3 mutant M3 I52N
OfurPBP3 mutant M3: I52N, sequence (E7CCA1 entry or part of it I74N): as the sequence (E7CCA1 entry or part of it L116R) above, with I52N, R94L counted along it
Method: as §1, §2

recombinant OfurPBP3 = recombinant OfurPBP3 (Ostrinia furnacalis, UniProt E7CCA1); assay: Competitive fluorescence binding assay with 1-NPN probe, OfurPBP3 wild type; settings: pH 7.4; for IC50 / Ki: OfurPBP3 wild type, mean ± SE, dash = undetectable interaction; for IC50: displacement of 1-NPN
recombinant OfurPBP3, sequence (E7CCA1 entry or part of it): as the sequence (E7CCA1 entry or part of it L116R) above, with R94L counted along it
Method: as §1

SMILES	Ki (recombinant OfurPBP1) [µM]	IC50 (recombinant OfurPBP1) [µM]	IC50 (OfurPBP3 mutant M4: I94R) [µM]	IC50 (recombinant OfurPBP2) [µM]	Ki (recombinant OfurPBP2) [µM]	IC50 (OfurPBP3 mutant M2: F12S) [µM]	binding to all five OfurPBPs (in words) [1]	IC50 (recombinant OfurPBP5) [µM]	Ki (recombinant OfurPBP5) [µM]	IC50 (recombinant OfurPBP4) [µM]	Ki (recombinant OfurPBP4) [µM]	IC50 [3] [µM]	IC50 (OfurPBP3 mutant M3: I52N) [µM]	IC50 (recombinant OfurPBP3) [µM]	Ki (recombinant OfurPBP3)	also measured
CC(=O)C(C)O (centres unmarked) [3-hydroxy-butan-2-on]																Kd (PBPLma): 3.8 µM
CCCC/C=C\CCCCCCCCO [Z9-14:OH, (Z)-9-Tetradecenol]	> 6	> 6	> 6	> 6	> 6	> 6	weak or lack of detectable binding	> 6	> 6	> 6	> 6	> 6	> 6	> 6	> 6 µM	binding to all mutated OfurPBPs (in words) [2]: weak binding affinity; binding to I113N (in words) ([3]; pH 7.4): ability to bind; binding to wildtype OfurPBP3 (in words) (recombinant OfurPBP3): failed to demonstrate this function
CC(O)C(C)O (centres unmarked) [butane-2,3-diol]																Kd (PBPLma): 2.5 µM
C/C=C/CCCCCCCCCCCOC(C)=O [E12-14:OAc, (E)-12-Tetradecenyl acetate]	5.01 ± 0.14	5.77 ± 0.16	> 6	4.88 ± 0.1	4.12 ± 0.08	> 6		> 6		> 6	> 6	> 6	> 6	3.81 ± 0.02	2.85 µM and 2.84 µM	binding to OfurPBP4 (in words) (recombinant OfurPBP4): incapable of binding; also recorded: no detectable binding; fold reduction in OfurPBP3 affinity caused by Ser12, Asn52, Arg94, Asn113 variants [2]: 1.7- to 4.6 fold
CC/C=C/CCCCCCCCCCOC(C)=O [E11-14:OAc, (E)-11-Tetradecenyl acetate]	4.61 ± 0.02	5.3 ± 0.02	> 6	3.28 ± 0.01	2.77 ± 0.01	> 6	relatively high affinities	1.9 ± 0.07	1.14 ± 0.04	2.31 ± 0.57	2.13 ± 0.53	> 6	> 6	2.64 ± 0.15	1.97 ± 0.11 µM	
C/C=C\CCCCCCCCCCCOC(C)=O [Z12-14:OAc, (Z)-12-Tetradecenyl acetate]	4.24 ± 0.82	4.88 ± 0.94	> 6	4.96 ± 0.23	4.19 ± 0.09	> 6		> 6		> 6		> 6	> 6	3.83 ± 0.06	2.86 ± 0.04 µM	fold reduction in affinity compared to wild-type OfurPBP3 (OfurPBP3 mutant M2: F12S; mutant F12S vs wildtype): ~ 2 fold; binding to OfurPBP5 (in words) (recombinant OfurPBP5): weakly; fold reduction in OfurPBP3 affinity caused by Ser12, Asn52, Arg94, Asn113 variants [2]: 1.7- to 4.6 fold; fold reduction in affinity compared to wild-type OfurPBP3 [3]: ~ 2 fold
CC/C=C\CCCCCCCCCCOC(C)=O [Z11-14:OAc, (Z)-11-Tetradecenyl acetate]	4.08 ± 0.12	4.69 ± 0.14	> 6	3.49 ± 0.06	2.95 ± 0.05	> 6	relatively high affinities	3.64 ± 0.28	2.18 ± 0.17	1.18 ± 0.05	1.09 ± 0.05	> 6	> 6	3.27 ± 0.24	2.44 ± 0.18 µM	fold reduction in affinity compared to wild-type OfurPBP3 [3]: ~8.25 fold
CC/C=C/CCCCCCCCCCO [E11-14:OH, (E)-11-Tetradecenol]	> 6	> 6	> 6	> 6		> 6	weak or lack of detectable binding	> 6	> 6	> 6	> 6	> 6	> 6	> 6	> 6 µM	binding to all mutated OfurPBPs (in words) [2]: weak binding affinity; binding to wildtype OfurPBP3 (in words) (recombinant OfurPBP3): failed to demonstrate this function
